{
  "source": "patent US8759579B2",
  "about": "“Cyclobutyl sulfones as notch sparing gamma secretase inhibitors” (Merck Sharp & Dohme Corp., priority 2008, dated 2014)",
  "key": {"[1]": {"tested_on": "Aβ40 peptides generated from SH-SY5Y cells expressing amyloid β protein (SP4CT cells)", "assay": "APP processing AlphaLisa assay, secreted Aβ40", "format": "cell-based", "details": "average of at least >4 replicates, read-out: AB40 IC50 AVG", "description": "(§1) APP Processing (Assay Quantitates Secreted Aβ Analytes from Cell Lines):\n(§2) The effect of compounds on the abundance of Aβ40 and Aβ42 peptides generated from SH-SY5Y cells expressing amyloid β protein (SP4CT cells) was determined by an AlphaLisa™ assay. Analogous to an ELISA assay, generation of signal in this AlphaLisa™ assay requires “donor” and “acceptor” beads to be brought in close proximity by specific antibody recognition of either Aβ40 or Aβ42 peptides. The assay was accomplished by removing media from compound-treated SP4CT cells to two different microplates, followed by the addition of donor beads conjugated with streptavidin binding a biotinylated anti-amyloid β monoclonal antibody (clone 4G8). Acceptor beads directly conjugated with anti-Aβ40 monoclonal antibody (G210) were added to one microplate and anti-Aβ42 monoclonal antibody (12F4) acceptor beads were added to the other. Abundance of Aβ40 and Aβ42 was directly proportional to the luminescent signal generated following excitation of donor beads by laser light."}, "[2]": {"tested_on": "Aβ42 peptides generated from SH-SY5Y cells expressing amyloid β protein (SP4CT cells)", "assay": "APP processing AlphaLisa assay, secreted Aβ42", "format": "cell-based", "details": "average of at least >4 replicates, read-out: AB42 IC50 AVG", "description": "as §1, §2"}, "[3]": {"tested_on": "gamma secretase-dependent cleavage of the Notch protein (NotchΔE) in HeLa cells", "assay": "Notch processing split-luciferase assay (Notch intracellular domain release)", "format": "cell-based", "from_the_text": "Notch Processing: (Assay Quantitates Notch Intracellular Domain Release in Cell Lines):\nA “split-luciferase” assay is used to measure inhibition of gamma secretase-dependent cleavage of the Notch protein. In this assay, HeLa cells were made to express a Notch protein lacking its extracellular domain (NotchΔE) fused to an N-terminal fragment of luciferase. The same cells also expressed a C-terminal fragment of luciferase fused to the immunoglobulin J kappa recombination signal sequence binding protein (RBP). Upon NotchΔE cleavage by gamma secretase, a Notch intracellular domain (NICD)-N terminal luciferase protein is generated which translocates to the nucleus and binds the RBP-C terminal luciferase fusion, bringing two independently nonfunctional halves of luciferase together to form a functional luciferase enzyme. The activity of luciferase in these cells is directly proportional to the amount of gamma secretase-cleaved Notch. Luciferase activity is determined by the standard techniques of luciferin addition to lysed cells and measurement of total luminescence."}, "[4]": {"assay": "covalent protein binding assay with liver microsomes", "format": "in vitro ADME", "details": "radiolabeled compound incubated with human liver microsomes", "description": "MRK-560 and Example 2 were tested in a covalent protein binding assay which is predictive of drug toxicity. The potential of drug candidates to cause covalent binding to proteins is evaluated by incubation of the radiolabeled version of the compound in question with liver microsomes. A semi-automated method based on Brandel Harvester technique is then used to measure the formation of covalent adducts of the test compound to liver proteins binding (Ref. Day et. al, J Pharmacol Toxicol Methods. 52, 278-85, 2005)."}, "[5]": {"molecular_target": "T1, pregnane X receptor (PXR) (Homo sapiens, UniProt O75469)", "T1 construct": "expressed in transfected cells; host or cells: HEP G2", "T1 sequence (O75469 1-434)": "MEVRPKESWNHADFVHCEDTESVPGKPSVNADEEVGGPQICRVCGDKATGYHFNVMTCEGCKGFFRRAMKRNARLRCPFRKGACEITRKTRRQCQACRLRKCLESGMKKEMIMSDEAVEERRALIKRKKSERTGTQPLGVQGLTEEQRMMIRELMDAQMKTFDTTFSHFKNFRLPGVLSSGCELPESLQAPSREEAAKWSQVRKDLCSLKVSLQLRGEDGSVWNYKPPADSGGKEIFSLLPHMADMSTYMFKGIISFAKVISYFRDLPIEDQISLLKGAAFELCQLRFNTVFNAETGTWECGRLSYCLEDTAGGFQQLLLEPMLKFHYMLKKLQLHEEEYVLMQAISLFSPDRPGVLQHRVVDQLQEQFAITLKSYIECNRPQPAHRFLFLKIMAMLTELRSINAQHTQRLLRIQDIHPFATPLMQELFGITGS", "T1 sequence (P19793 1-462 partner)": "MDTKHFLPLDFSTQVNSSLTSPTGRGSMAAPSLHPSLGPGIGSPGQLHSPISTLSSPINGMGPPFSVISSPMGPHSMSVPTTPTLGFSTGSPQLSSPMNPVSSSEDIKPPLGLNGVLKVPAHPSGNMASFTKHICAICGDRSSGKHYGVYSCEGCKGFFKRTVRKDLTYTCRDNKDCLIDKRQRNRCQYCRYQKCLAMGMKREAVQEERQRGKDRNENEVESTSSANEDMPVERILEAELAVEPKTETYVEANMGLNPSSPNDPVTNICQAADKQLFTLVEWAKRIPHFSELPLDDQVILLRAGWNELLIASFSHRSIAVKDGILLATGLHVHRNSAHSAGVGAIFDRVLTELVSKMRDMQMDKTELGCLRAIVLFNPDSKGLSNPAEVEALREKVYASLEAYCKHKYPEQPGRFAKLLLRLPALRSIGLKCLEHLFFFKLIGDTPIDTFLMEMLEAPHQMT", "assay": "PXR assay (CYP3A4-SEAP transactivation assay, PCSTA)", "format": "cell-based", "details": "for pEC50: HEP G2 cells", "from_the_text": "The CYP3A4-SEAP transactivation assay (PCSTA) effectively and rapidly evaluates compounds for their potential to induce cytochrome P450 CYP3A (human CYP3A4 or rat CYP3A1). The reporter construct contains regulatory regions from the CYP3A4 gene positioned just upstream of a secreted alkaline phosphatase (SEAP) gene. The human PXR nuclear receptor has been modified at the 5′-end so that methionine is the initiating amino acid replacing leucine found in the wild-type sequence. HEP G2 cells are transfected with the PXR plasmid (human or rat) and the reporter plasmid. Read-out for the induction of CYP3A4 consists of a SEAP calorimetric assay with para-nitro-phenyl phosphate (pNPP) as the substrate. Five point dose-response curves in duplicate are then generated with each point corresponding to the rate of conversion of pNPP to pNP by SEAP. For the human PCSTA, rifampicin is used as the positive control and 100% induction is based upon the maximum induction produced by rifampicin at 10 μM."}, "[6]": {"details": "Homo sapiens, HeLa, average of at least >4 replicates, read-out: Notch IC50 AVG"}, "[7]": {"details": "read-out: Notch IC50 AVG, average of at least >4 replicates"}},
  "note": "pEC50, pIC50: −log10 of the molar value. Where two headings read alike, the source gives them in different places.",
  "data": [
    {"smiles": "O=S(=O)(N[C@H]1C[C@@](c2cc(F)ccc2F)(S(=O)(=O)c2ccc(Cl)cc2)C1)C(F)(F)F", "note": "[Example 2, N-[cis-3-[(4-chlorophenyl)sulfonyl]-3-(2,5-difluorophenyl)cyclobutyl]-1,1,1-trifluoromethanesulfonamide]", "values": [
      {"measurement": "pIC50", "setting": "[1]; Homo sapiens, SH-SY5Y", "result": 7.37},
      {"measurement": "pIC50", "setting": "[2]; Homo sapiens, SH-SY5Y", "result": 7.42},
      {"measurement": "pIC50", "setting": "[3]; [6]", "result": 5.46},
      {"measurement": "covalent protein binding (human microsomes)", "setting": "[4]", "result": 380, "unit": "pmol/mg"},
      {"measurement": "PXR % Activation @ 10 uM", "setting": "[5]", "result": 55.5, "unit": "%"},
      {"measurement": "pEC50", "setting": "[5]", "result": 5.46}
    ]},
    {"smiles": "C[C@]1(NS(=O)(=O)C(F)(F)F)C[C@@](c2cc(F)ccc2F)(S(=O)(=O)c2ccc(Cl)cc2)C1", "note": "[Example 17, N-[cis-3-[(4-chlorophenyl)sulfonyl]-3-(2,5-difluorophenyl)-1-methylcyclobutyl]-1,1,1-trifluoromethanesulfonamide]", "values": [
      {"measurement": "pIC50", "setting": "[1]; Homo sapiens, SH-SY5Y", "result": 7.43},
      {"measurement": "pIC50", "setting": "[2]; Homo sapiens, SH-SY5Y", "result": 7.43},
      {"measurement": "pIC50", "setting": "[3]; [6]", "result": 5.28},
      {"measurement": "PXR % Activation @ 10 uM", "setting": "[5]", "result": 74.6, "unit": "%"},
      {"measurement": "pEC50", "setting": "[5]", "result": 6.07}
    ]},
    {"smiles": "CC1(NS(=O)(=O)C(F)(F)F)CC(c2cc(F)ccc2F)(S(=O)(=O)c2ccc(C(F)(F)F)cc2)C1", "note": "(stereo not drawn) [Example 18, N-(cis-3-(2,5-difluorophenyl)-1-methyl-3-{[4-(trifluoromethyl)phenyl]sulfonyl}cyclobutyl)-1,1,1-trifluoromethanesulfonamide]", "values": [
      {"measurement": "pIC50", "setting": "[1]; Homo sapiens, SH-SY5Y", "result": 7.22},
      {"measurement": "pIC50", "setting": "[2]; Homo sapiens, SH-SY5Y", "result": 7.18},
      {"measurement": "pIC50", "setting": "[3]; [6]", "result": 5.35},
      {"measurement": "PXR % Activation @ 10 uM", "setting": "[5]", "result": 75.5, "unit": "%"},
      {"measurement": "pEC50", "setting": "[5]", "result": 5.51}
    ]},
    {"smiles": "O=S(=O)(N([C@H]1C[C@@](c2cc(F)ccc2F)(S(=O)(=O)c2ccc(Cl)cc2)C1)S(=O)(=O)C(F)(F)F)C(F)(F)F", "note": "[Example 19, N-[cis-3-[(4-chlorophenyl)sulfonyl]-3-(2,5-difluorophenyl)cyclobutyl]-1,1,1-trifluoro-N-[(trifluoromethyl)sulfonyl]methanesulfonamide]", "values": [
      {"measurement": "pIC50", "setting": "[1]; Homo sapiens, SH-SY5Y", "result": 7.20},
      {"measurement": "pIC50", "setting": "[2]; Homo sapiens, SH-SY5Y", "result": 7.31},
      {"measurement": "pIC50", "setting": "[3]; [6]", "result": 5.25},
      {"measurement": "PXR % Activation @ 10 uM", "setting": "[5]", "result": 89.1, "unit": "%"},
      {"measurement": "pEC50", "setting": "[5]", "result": 5.90}
    ]},
    {"smiles": "O=S(=O)([N-][C@H]1C[C@@](c2cc(F)ccc2F)(S(=O)(=O)c2ccc(Cl)cc2)C1)C(F)(F)F.[Na+]", "note": "[Example 20, Sodium [cis-3-[(4-chlorophenyl)sulfonyl]-3-(2,5-difluorophenyl)cyclobutyl][(trifluoromethyl)sulfonyl]azanide]", "values": [
      {"measurement": "pIC50", "setting": "[1]", "result": 7.21},
      {"measurement": "pIC50", "setting": "[2]", "result": 7.27},
      {"measurement": "pIC50", "setting": "[3]; [7]", "result": 5.75},
      {"measurement": "PXR % Activation @ 10 uM", "setting": "[5]", "result": 71.9, "unit": "%"},
      {"measurement": "pEC50", "setting": "[5]", "result": 5.54}
    ]},
    {"smiles": "O=S(=O)([N-][C@H]1C[C@@](c2cc(F)ccc2F)(S(=O)(=O)c2ccc(Cl)cc2)C1)C(F)(F)F.[K+]", "note": "[Example 21, Potassium [cis-3-[(4-chlorophenyl)sulfonyl]-3-(2,5-difluorophenyl)cyclobutyl][(trifluoromethyl)sulfonyl]azanide]", "values": [
      {"measurement": "pIC50", "setting": "[1]", "result": 7.19},
      {"measurement": "pIC50", "setting": "[2]", "result": 7.15},
      {"measurement": "pIC50", "setting": "[3]; [7]", "result": 5.67},
      {"measurement": "PXR % Activation @ 10 uM", "setting": "[5]", "result": 64.4, "unit": "%"},
      {"measurement": "pEC50", "setting": "[5]", "result": 5.47}
    ]},
    {"smiles": "O=S(=O)(N[C@H]1C[C@@](c2cc(F)ccc2F)(S(=O)(=O)c2ccc(OC(F)(F)F)cc2)C1)C(F)(F)F", "note": "[Example 22, N-[cis-3-[(4-trifluoromethoxyphenyl)sulfonyl]-3-(2,5-difluorophenyl)cyclobutyl]-1,1,1-trifluoromethanesulfonamide]", "values": [
      {"measurement": "pIC50", "setting": "[1]; Homo sapiens, SH-SY5Y", "result": 6.60},
      {"measurement": "pIC50", "setting": "[2]; Homo sapiens, SH-SY5Y", "result": 6.62},
      {"measurement": "pIC50", "setting": "[3]; [6]", "result": 5.28},
      {"measurement": "PXR % Activation @ 10 uM", "setting": "[5]", "result": 50.6, "unit": "%"},
      {"measurement": "pEC50", "setting": "[5]", "result": 5.02}
    ]}
  ]
}
